As a reminder, the % inhibition is the share of the control response that was lost under treatment. Read a low % inhibition as a response near the control.

Experimental findings from patent US20120083522A1, “MODULATION OF INFLAMMATORY RESPONSES BY FACTOR XI” (Isis Pharmaceuitcals, inc., priority 2009, published 2012) are described below.

In the oligonucleotide strings, read from the 5' end, every base follows the letter of its sugar. An asterisk marks phosphorothioate; unmarked linkages are phosphodiester. Other units and linkages are bracketed, terminal groups are in braces. A string of capitals states the bases alone. e = 2'-O-(2-methoxyethyl) (MOE); [5mC] = 5-methylcytosine; d = 2'-deoxy (DNA)

The test system of the first data set is human Factor XI mRNA. The data set is described as follows: Antisense inhibition in HepG2 cells by microwalk gapmers, 75 nM, lipofectin (Example 3). The data set is classed as cell-based. The settings on record: HepG2, 75 nM, approximately 24 hours, nucleobases 656 to 704 of SEQ ID NO: 1. As for the experimental part:
These gapmers were designed by creating gapmers shifted slightly upstream and downstream (i.e. “microwalk”) of the original gapmers from Table 3. Gapmers were also created with various motifs, e.g. 5-10-5 MOE, 3-14-3 MOE, and 2-13-5 MOE. These gapmers were tested in vitro. Cultured HepG2 cells at a density of 10,000 cells per well were transfected using lipofectin reagent with 75 nM antisense oligonucleotide. After a treatment period of approximately 24 hours, RNA was isolated from the cells and Factor XI mRNA levels were measured by quantitative real-time PCR. Factor XI mRNA levels were adjusted according to total RNA content, as measured by RIBOGREEN®. Results are presented as percent inhibition of Factor XI, relative to untreated control cells.
The chimeric antisense oligonucleotides in Table 4 were designed as 5-10-5 MOE, 3-14-3 MOE, and 2-13-5 MOE gapmers. The first listed gapmers in Table 4 are the original gapmers (see Table 3) from which the remaining gapmers were designed via microwalk and are designated by an asterisk. The 5-10-5 gapmers are 20 nucleotides in length, wherein the central gap segment is comprised of 10 2′-deoxynucleotides and is flanked on both sides (in the 5′ and 3′ directions) by wings comprising 5 nucleotides each. The 3-14-3 gapmers are 20 nucleotides in length, wherein the central gap segment is comprised of 14 2′-deoxynucleotides and is flanked on both sides (in the 5′ and 3′ directions) by wings comprising 3 nucleotides each. The 2-13-5 gapmers are 20 nucleotides in length, wherein the central gap segment is comprised of 13 2′-deoxynucleotides. The central gap is flanked on the 5′ end with a wing comprising 2 nucleotides and on the 3′ end with a wing comprising 5 nucleotides. For each of the motifs (5-10-5, 3-14-3, and 2-13-5), each nucleotide in the 5′ wing segment and each nucleotide in the 3′ wing segment has a 2′-MOE modification. The internucleoside linkages throughout each gapmer are phosphorothioate (P═S) linkages. All cytidine residues throughout each gapmer are 5-methylcytidines. “Target start site” indicates the 5′-most nucleotide to which the gapmer is targeted. “Target stop site” indicates the 3′-most nucleotide to which the gapmer is targeted. Each gapmer listed in Table 4 is targeted to SEQ ID NO: 1 (GENBANK Accession No. NM_000128.3).
Regarding “416894 (antisense eA*eT*eG*d[5mC]*d[5mC]*d[5mC]*dT*dT*d[5mC]*dA*dT*dG*dT*d[5mC]*dT*dA*dG*eG*eT*e[5mC]) [compound 416894]”, the “% inhibition” value turned out to be 84%.

Still in this data set, the particulars now being: HepG2 cells, 75 nM, oligonucleotides targeted to nucleobases 738 to 762 of SEQ ID NO: 1.
For the substance “416898 (antisense e[5mC]*e[5mC]*eG*dT*dG*d[5mC]*dA*dT*d[5mC]*dT*dT*dT*d[5mC]*dT*dT*dG*dG*e[5mC]*eA*eT) [compound 416898]”, the “% inhibition of human Factor XI mRNA levels” value was determined as 88%.

On to “416899 (antisense eT*e[5mC]*e[5mC]*dG*dT*dG*d[5mC]*dA*dT*d[5mC]*dT*dT*dT*d[5mC]*dT*dT*dG*eG*e[5mC]*eA) [compound 416899]”, for which the “% inhibition of human Factor XI mRNA levels” value amounted to 86%.

Consider “416900 (antisense eA*eT*e[5mC]*d[5mC]*dG*dT*dG*d[5mC]*dA*dT*d[5mC]*dT*dT*dT*d[5mC]*dT*dT*eG*eG*e[5mC]) [compound 416900]”, for which the “% inhibition of human Factor XI mRNA levels” value worked out at 90%.

For the substance “416901 (antisense e[5mC]*eA*eT*d[5mC]*d[5mC]*dG*dT*dG*d[5mC]*dA*dT*d[5mC]*dT*dT*dT*d[5mC]*dT*eT*eG*eG) [compound 416901]”, the “% inhibition of human Factor XI mRNA levels” value is on record as 65%.

As to “416902 (antisense eT*e[5mC]*eA*dT*d[5mC]*d[5mC]*dG*dT*dG*d[5mC]*dA*dT*d[5mC]*dT*dT*dT*d[5mC]*eT*eT*eG) [compound 416902]”, the “% inhibition of human Factor XI mRNA levels” value was 46%.

For “416903 (antisense eG*eT*e[5mC]*dA*dT*d[5mC]*d[5mC]*dG*dT*dG*d[5mC]*dA*dT*d[5mC]*dT*dT*dT*e[5mC]*eT*eT) [compound 416903]”, the “% inhibition of human Factor XI mRNA levels” value amounted to 88%.

Staying with this data set, now noted: HepG2 cells, 75 nM, oligonucleotides targeted to nucleobases 1018 to 1042 of SEQ ID NO: 1.
Consider “416904 (antisense e[5mC]*e[5mC]*eG*dG*dG*dA*dT*dG*dA*dT*dG*dA*dG*dT*dG*d[5mC]*dA*eG*eA*eT) [compound 416904]”, for which the “% inhibition of human Factor XI mRNA levels” value is on record as 90%.

Take “416905 (antisense eA*e[5mC]*e[5mC]*dG*dG*dG*dA*dT*dG*dA*dT*dG*dA*dG*dT*dG*d[5mC]*eA*eG*eA) [compound 416905]”: the “% inhibition of human Factor XI mRNA levels” value worked out at 85%.

As to “416906 (antisense eA*eA*e[5mC]*d[5mC]*dG*dG*dG*dA*dT*dG*dA*dT*dG*dA*dG*dT*dG*e[5mC]*eA*eG) [compound 416906]”, the “% inhibition of human Factor XI mRNA levels” value is 88%.

For the substance “416907 (antisense e[5mC]*eA*eA*d[5mC]*d[5mC]*dG*dG*dG*dA*dT*dG*dA*dT*dG*dA*dG*dT*eG*e[5mC]*eA) [compound 416907]”, the “% inhibition of human Factor XI mRNA levels” value amounted to 90%.

Staying with this data set, now noted: HepG2 cells, 75 nM, oligonucleotides targeted to nucleobases 1062 to 1091 of SEQ ID NO: 1.
Take “416839 (antisense eG*eA*eT*eT*e[5mC]*dT*dT*dT*dG*dG*dG*d[5mC]*d[5mC]*dA*dT*eT*e[5mC]*e[5mC]*eT*eG) [compound 416839]”: the “% inhibition of human Factor XI mRNA levels” value amounted to 89%.

Regarding “416840 (antisense eA*eG*eA*eT*eT*d[5mC]*dT*dT*dT*dG*dG*dG*d[5mC]*d[5mC]*dA*eT*eT*e[5mC]*e[5mC]*eT) [compound 416840]”, the “% inhibition of human Factor XI mRNA levels” value is listed as 85%.

For the substance “416841 (antisense eG*eA*eG*eA*eT*dT*d[5mC]*dT*dT*dT*dG*dG*dG*d[5mC]*d[5mC]*eA*eT*eT*e[5mC]*e[5mC]) [compound 416841]”, the “% inhibition of human Factor XI mRNA levels” value is listed as 87%.

Take “416843 (antisense eT*eT*eT*eG*eA*dG*dA*dT*dT*d[5mC]*dT*dT*dT*dG*dG*eG*e[5mC]*e[5mC]*eA*eT) [compound 416843]”: the “% inhibition of human Factor XI mRNA levels” value is on record as 89%.

Turning to “416844 (antisense e[5mC]*eT*eT*eT*eG*dA*dG*dA*dT*dT*d[5mC]*dT*dT*dT*dG*eG*eG*e[5mC]*e[5mC]*eA) [compound 416844]”, the “% inhibition of human Factor XI mRNA levels” value came to 90%.

As for “416845 (antisense eT*e[5mC]*eT*eT*eT*dG*dA*dG*dA*dT*dT*d[5mC]*dT*dT*dT*eG*eG*eG*e[5mC]*e[5mC]) [compound 416845]”, the “% inhibition of human Factor XI mRNA levels” value worked out at 86%.

With “416846 (antisense eT*eT*e[5mC]*eT*eT*dT*dG*dA*dG*dA*dT*dT*d[5mC]*dT*dT*eT*eG*eG*eG*e[5mC]) [compound 416846]”, the “% inhibition of human Factor XI mRNA levels” value is on record as 72%.

As for “416847 (antisense eT*eT*eT*e[5mC]*eT*dT*dT*dG*dA*dG*dA*dT*dT*d[5mC]*dT*eT*eT*eG*eG*eG) [compound 416847]”, the “% inhibition of human Factor XI mRNA levels” value amounted to 50%.

Consider “416909 (antisense eA*eT*eT*d[5mC]*dT*dT*dT*dG*dG*dG*d[5mC]*d[5mC]*dA*dT*dT*d[5mC]*d[5mC]*eT*eG*eG) [compound 416909]”, for which the “% inhibition of human Factor XI mRNA levels” value worked out at 78%.

As to “416910 (antisense eG*eA*eT*dT*d[5mC]*dT*dT*dT*dG*dG*dG*d[5mC]*d[5mC]*dA*dT*dT*d[5mC]*e[5mC]*eT*eG) [compound 416910]”, the “% inhibition of human Factor XI mRNA levels” value stood at 90%.

As for “416911 (antisense eA*eG*eA*dT*dT*d[5mC]*dT*dT*dT*dG*dG*dG*d[5mC]*d[5mC]*dA*dT*dT*e[5mC]*e[5mC]*eT) [compound 416911]”, the “% inhibition of human Factor XI mRNA levels” value was 90%.

In the case of “416912 (antisense eG*eA*eG*dA*dT*dT*d[5mC]*dT*dT*dT*dG*dG*dG*d[5mC]*d[5mC]*dA*dT*eT*e[5mC]*e[5mC]) [compound 416912]”, the “% inhibition of human Factor XI mRNA levels” value came out at 92%.

In the case of “416913 (antisense eT*eG*eA*dG*dA*dT*dT*d[5mC]*dT*dT*dT*dG*dG*dG*d[5mC]*d[5mC]*dA*eT*eT*e[5mC]) [compound 416913]”, the “% inhibition of human Factor XI mRNA levels” value was 93%.

Consider “416914 (antisense eT*eT*eG*dA*dG*dA*dT*dT*d[5mC]*dT*dT*dT*dG*dG*dG*d[5mC]*d[5mC]*eA*eT*eT) [compound 416914]”, for which the “% inhibition of human Factor XI mRNA levels” value is recorded as 87%.

Turning to “416915 (antisense eT*eT*eT*dG*dA*dG*dA*dT*dT*d[5mC]*dT*dT*dT*dG*dG*dG*d[5mC]*e[5mC]*eA*eT) [compound 416915]”, the “% inhibition of human Factor XI mRNA levels” value is listed as 79%.

In the case of “416916 (antisense e[5mC]*eT*eT*dT*dG*dA*dG*dA*dT*dT*d[5mC]*dT*dT*dT*dG*dG*dG*e[5mC]*e[5mC]*eA) [compound 416916]”, the “% inhibition of human Factor XI mRNA levels” value worked out at 91%.

Regarding “416917 (antisense eT*e[5mC]*eT*dT*dT*dG*dA*dG*dA*dT*dT*d[5mC]*dT*dT*dT*dG*dG*eG*e[5mC]*e[5mC]) [compound 416917]”, the “% inhibition of human Factor XI mRNA levels” value is given as 92%.

“416918 (antisense eT*eT*e[5mC]*dT*dT*dT*dG*dA*dG*dA*dT*dT*d[5mC]*dT*dT*dT*dG*eG*eG*e[5mC]) [compound 416918]”: the “% inhibition of human Factor XI mRNA levels” value is given as 63%.

With “416919 (antisense eT*eT*eT*d[5mC]*dT*dT*dT*dG*dA*dG*dA*dT*dT*d[5mC]*dT*dT*dT*eG*eG*eG) [compound 416919]”, the “% inhibition of human Factor XI mRNA levels” value is on record as 27%.

Staying with this data set, now noted: HepG2 cells, 75 nM, oligonucleotides targeted to nucleobases 1275 to 1318 of SEQ ID NO: 1.
For “416920 (antisense eA*e[5mC]*eA*dG*dT*dT*dT*d[5mC]*dT*dG*dG*d[5mC]*dA*dG*dG*d[5mC]*d[5mC]*eT*e[5mC]*eG) [compound 416920]”, the “% inhibition of human Factor XI mRNA levels” value was determined as 88%.

On to “416921 (antisense e[5mC]*eA*e[5mC]*dA*dG*dT*dT*dT*d[5mC]*dT*dG*dG*d[5mC]*dA*dG*dG*d[5mC]*e[5mC]*eT*e[5mC]) [compound 416921]”, for which the “% inhibition of human Factor XI mRNA levels” value is recorded as 88%.

Take “416927 (antisense eT*eT*eG*dG*dT*dG*d[5mC]*dA*d[5mC]*dA*dG*dT*dT*dT*d[5mC]*dT*dG*eG*e[5mC]*eA) [compound 416927]”: the “% inhibition of human Factor XI mRNA levels” value is 87%.

For the substance “416928 (antisense eA*eT*eT*dG*dG*dT*dG*d[5mC]*dA*d[5mC]*dA*dG*dT*dT*dT*d[5mC]*dT*eG*eG*e[5mC]) [compound 416928]”, the “% inhibition of human Factor XI mRNA levels” value is 91%.

“416929 (antisense e[5mC]*eA*eT*dT*dG*dG*dT*dG*d[5mC]*dA*d[5mC]*dA*dG*dT*dT*dT*d[5mC]*eT*eG*eG) [compound 416929]”: the “% inhibition of human Factor XI mRNA levels” value was determined as 83%.

Take “416930 (antisense eG*e[5mC]*eA*dT*dT*dG*dG*dT*dG*d[5mC]*dA*d[5mC]*dA*dG*dT*dT*dT*e[5mC]*eT*eG) [compound 416930]”: the “% inhibition of human Factor XI mRNA levels” value is 87%.

As for “416932 (antisense e[5mC]*eG*eG*d[5mC]*dA*dT*dT*dG*dG*dT*dG*d[5mC]*dA*d[5mC]*dA*dG*dT*eT*eT*e[5mC]) [compound 416932]”, the “% inhibition of human Factor XI mRNA levels” value is on record as 92%.
